A short description of assay [1]: Cytotoxicity against human HepG2(2.2.15) cells. It is filed as functional, cell-based.
For assay [2], the target named is Prothrombin (Homo sapiens) (UniProt P00734). Briefly: Inhibition of thrombin-mediated conversion of fibrinogen to fibrin.
For a further assay, the system named is HepG2. Briefly: Cytotoxicity against human HepG2 cells. It is filed as functional, cell-based.

In brackets after ≈: the same amount, converted by molar mass. Activity calls are given as the source filed them. No cut-off for these calls is given here.

Consider seven molecules from ChEMBL document CHEMBL1155763, “The alkaloids of Artabotrys uncinatus” (J Nat Prod, 2001).

As usually defined, the IC50 is the concentration at which inhibition is half-maximal. A lower IC50 goes with greater potency.

Take `COc1c2c3c(c4c1OCO4)-c1ccccc1[C@@H](O)[C@H]3NCC2` [ARTABONATINE B]: the IC50 in assay [1] came to 11 µg/mL (≈ 35.3 µM); in the assay with HepG2, 9.1 µg/mL (≈ 29.2 µM). For the same molecule, the result in assay [2] was inactive.
Take `NC(=O)N1CCCC1=O` [SQUAMOLONE]: the IC50 in assay [1] came to 1.6 µg/mL (≈ 12.5 µM); in the assay with HepG2, 2.8 µg/mL (≈ 21.9 µM). In addition, in assay [2], the outcome was inactive.
As to `COc1c2c3c(c4c1OCO4)-c1ccccc1C[C@H]3N(C(C)=O)CC2`, the IC50 in assay [1] amounted to 9.3 µg/mL (≈ 27.6 µM); in the assay on HepG2, 9.8 µg/mL (≈ 29 µM). In assay [2], the result was inactive.
For `CC(C)=C1C=C(CN2CCCC2=O)C(=O)O1` [UNCININE] the same measures were 7.4 µg/mL (≈ 33.4 µM), 6.1 µg/mL (≈ 27.6 µM) and “inactive”.
As for `COC1=C[C@@]23CCN(C)[C@@H](Cc4ccc(OC)c(O)c42)C3=CC1=O`, the IC50 turned out to be 10.4 µg/mL (≈ 31.8 µM) in assay [1] and 10.2 µg/mL (≈ 31.2 µM) in the assay with HepG2. Moreover, the outcome in assay [2] was inactive.
On to `COC1=C[C@]23CCN(C)[C@H](Cc4cc(OC)c(O)cc42)C3=CC1=O` [FLAVINANTINE], for which the values for the IC50 (in assay [1]; in the assay with HepG2) were 9.7 µg/mL (≈ 29.6 µM) and 9.3 µg/mL (≈ 28.4 µM), respectively. The result in assay [2] was inactive.
Consider `COc1ccc2c(c1)C(=O)c1nccc3cc4c(c-2c13)OCO4` [ATHEROSPERMIDINE], for which the IC50 came to 2.2 µg/mL (≈ 7.21 µM) in assay [1] and 0.8 µg/mL (≈ 2.62 µM) with HepG2. The outcome in assay [2] was inactive.
